Reference: ChEMBL document CHEMBL5223143, “Identification of novel benzimidazole derivatives as highly potent AMPK activators with anti-diabetic profiles” (Bioorg Med Chem Lett, 2023)
Each block holds one compound with its values, some of them ahead of it. Calls of active or inactive are those of the source. The rule behind the calls is not given here.

Assays:
[1] = target: AMPK alpha2/beta2/gamma1 (Homo sapiens) (UniProt P54646+O43741+P54619); experiment: Activation of human recombinant AMPK A2/B2/G1 assessed as increase in AMPK phosphorylation using FL-peptide as substrate incubated for 120 mins by EZ reader method; type: protein-complex assay; conditions: filed as activator
[2] = tested on: L6; experiment: Activation of AMPK alpha2beta2gamma1 in rat L6 cells assessed as increase in AMPK phosphorylation by ELISA assay; type: cell-based; conditions: filed as activator
[3] = tested on: Mus musculus; experiment: Antidiabetic activity against diabetic KKAy mouse model assessed as acute glucose lowering effect at 0.3 to 3 mg/kg,po bid; type: functional, organism-based; conditions: dose 0.3-3 mg/kg
[4] = target: Cytochrome P450 2C19 (Homo sapiens, UniProt P33261); experiment: Inhibition of CYP2C19 in human liver microsomes using mephenytoin as substrate; type: ADME, Microsome
[5] = Metabolic stability in rat liver microsomes assessed as compound remaining incubated for 30 mins; type: ADME, Microsome; conditions: read-out: Stability
[6] = Protein binding in serum (unknown origin) assessed as free fraction by equilibrium dialysis method; type: ADME, cell-free
[7] = Total clearance in rat at 0.5 mg/kg,iv; type: ADME, organism-based; conditions: in vivo
[8] = tested on: Mus musculus; experiment: Antidiabetic activity against diabetic KKAy mouse model assessed as decrease in HbA1c level at 0.3 to 3 mg/kg,po bid observed upto 21 days; type: functional, organism-based; conditions: dose 0.3-3 mg/kg, time <= 21.0 day
[9] = […] in rat muscle tissue at 0.5 mg/kg,iv; type: ADME, organism-based
[10] = target: Cytochrome P450 2D6 (Homo sapiens, UniProt P10635); experiment: Inhibition of CYP2D6 in human liver microsomes using dextromethorphan as substrate; type: ADME, Microsome
[11] = target: T1, Cytochrome P450 1A2 (Homo sapiens, UniProt P05177); experiment: Inhibition of CYP1A2 in human liver microsomes using 7-ethoxyresorufin as substrate; type: ADME, Microsome
T1 sequence (P05177 whole entry): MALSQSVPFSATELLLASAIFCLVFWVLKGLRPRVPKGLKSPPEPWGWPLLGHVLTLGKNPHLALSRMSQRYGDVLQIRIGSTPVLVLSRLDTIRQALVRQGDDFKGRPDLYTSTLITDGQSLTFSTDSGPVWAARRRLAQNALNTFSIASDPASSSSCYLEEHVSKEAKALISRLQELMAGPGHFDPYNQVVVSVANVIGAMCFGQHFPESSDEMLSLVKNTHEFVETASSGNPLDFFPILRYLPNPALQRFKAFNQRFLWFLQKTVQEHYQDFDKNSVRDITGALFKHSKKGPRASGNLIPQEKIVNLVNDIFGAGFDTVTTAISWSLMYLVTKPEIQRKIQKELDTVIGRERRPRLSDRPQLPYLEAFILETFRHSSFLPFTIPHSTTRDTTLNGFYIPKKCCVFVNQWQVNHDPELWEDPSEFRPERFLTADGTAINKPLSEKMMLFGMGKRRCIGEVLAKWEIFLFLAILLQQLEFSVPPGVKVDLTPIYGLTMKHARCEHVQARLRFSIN

[12] = target: Cytochrome P450 3A4 (Homo sapiens, UniProt P08684); experiment: Inhibition of CYP3A4 in human liver microsomes using terfenedine as substrate; type: ADME, Microsome
[13] = target: Cytochrome P450 2C9 (Homo sapiens, UniProt P11712); experiment: Inhibition of CYP2C9 in human liver microsomes using tolbutamide as substrate; type: ADME, Microsome
[14] = AUC in rat at 1 mg/kg,po; type: ADME, organism-based; design: dose 1 mg/kg, route po; conditions: in vivo
[15] = Cmax in rat at 0.5 mg/kg,iv; type: ADME, organism-based; design: dose 0.5 mg/kg, route iv; conditions: in vivo
[16] = tested on: Mus musculus; experiment: Antidiabetic activity against diabetic KKAy mouse model assessed as decrease in plasma glucose level at 0.3 to 3 mg/kg,po bid observed upto 21 days; type: functional, organism-based; conditions: dose 0.3-3 mg/kg, time <= 21.0 day
[17] = tested on: Mus musculus; experiment: Antidiabetic activity against diabetic KKAy mouse model assessed as increase in ACC phosphorylation in skeletal muscle at 0.3 to 3 mg/kg,po bid; type: functional, organism-based; conditions: dose 0.3-3 mg/kg
[18] = Metabolic stability in human liver microsomes assessed as compound remaining incubated for 30 mins; type: ADME, Microsome; conditions: read-out: Stability
[19] = […] in rat liver at 0.5 mg/kg,iv; type: ADME, organism-based

AMPK alpha2/beta2/gamma1 (Homo sapiens), sequence (O43741 whole entry, looked up): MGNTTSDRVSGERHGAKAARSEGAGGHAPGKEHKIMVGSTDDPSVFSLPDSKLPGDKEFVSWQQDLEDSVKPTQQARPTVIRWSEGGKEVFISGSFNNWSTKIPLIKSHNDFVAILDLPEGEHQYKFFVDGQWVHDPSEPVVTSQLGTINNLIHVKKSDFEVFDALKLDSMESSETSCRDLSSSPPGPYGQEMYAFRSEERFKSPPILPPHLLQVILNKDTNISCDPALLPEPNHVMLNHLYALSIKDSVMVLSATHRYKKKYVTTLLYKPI
AMPK alpha2/beta2/gamma1 (Homo sapiens), sequence (P54619 whole entry, looked up): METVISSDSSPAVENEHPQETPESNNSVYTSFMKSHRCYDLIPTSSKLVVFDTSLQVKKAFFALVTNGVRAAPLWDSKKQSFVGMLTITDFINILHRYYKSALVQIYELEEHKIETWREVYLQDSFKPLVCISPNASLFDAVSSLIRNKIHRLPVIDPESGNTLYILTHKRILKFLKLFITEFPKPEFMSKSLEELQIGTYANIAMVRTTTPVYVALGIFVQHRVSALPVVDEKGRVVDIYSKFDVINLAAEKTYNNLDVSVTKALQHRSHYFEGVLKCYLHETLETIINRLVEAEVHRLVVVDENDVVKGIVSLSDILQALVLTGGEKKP
AMPK alpha2/beta2/gamma1 (Homo sapiens), sequence (P54646 whole entry, looked up): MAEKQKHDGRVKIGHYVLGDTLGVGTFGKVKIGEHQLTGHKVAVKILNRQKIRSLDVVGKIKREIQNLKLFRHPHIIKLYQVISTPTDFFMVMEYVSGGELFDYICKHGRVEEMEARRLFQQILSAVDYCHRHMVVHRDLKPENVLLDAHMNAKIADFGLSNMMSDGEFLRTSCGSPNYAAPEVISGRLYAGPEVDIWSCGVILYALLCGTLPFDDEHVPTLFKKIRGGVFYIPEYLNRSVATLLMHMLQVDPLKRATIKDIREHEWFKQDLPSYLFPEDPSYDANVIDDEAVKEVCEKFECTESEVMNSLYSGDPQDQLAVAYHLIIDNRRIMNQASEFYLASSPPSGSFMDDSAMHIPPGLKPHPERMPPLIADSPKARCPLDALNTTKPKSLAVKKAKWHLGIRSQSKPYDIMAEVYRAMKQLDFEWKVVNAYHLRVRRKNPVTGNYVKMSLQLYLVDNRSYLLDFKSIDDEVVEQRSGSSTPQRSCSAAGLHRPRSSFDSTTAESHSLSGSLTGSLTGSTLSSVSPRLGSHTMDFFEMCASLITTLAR
Cytochrome P450 2C19, sequence (P33261 whole entry): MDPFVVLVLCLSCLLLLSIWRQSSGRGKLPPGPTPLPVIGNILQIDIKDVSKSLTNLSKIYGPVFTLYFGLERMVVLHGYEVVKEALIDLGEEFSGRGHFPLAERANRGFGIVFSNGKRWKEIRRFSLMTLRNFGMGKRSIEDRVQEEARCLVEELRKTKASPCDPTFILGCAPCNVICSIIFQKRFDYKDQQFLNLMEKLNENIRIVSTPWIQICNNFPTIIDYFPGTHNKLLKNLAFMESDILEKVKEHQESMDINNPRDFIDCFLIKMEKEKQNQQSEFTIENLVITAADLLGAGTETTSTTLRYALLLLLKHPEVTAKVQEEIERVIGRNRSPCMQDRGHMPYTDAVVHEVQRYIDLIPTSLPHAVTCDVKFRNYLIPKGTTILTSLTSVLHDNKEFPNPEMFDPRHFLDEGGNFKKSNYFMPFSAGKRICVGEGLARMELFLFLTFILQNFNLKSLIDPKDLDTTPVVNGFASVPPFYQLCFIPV
Cytochrome P450 2C9, sequence (P11712 whole entry): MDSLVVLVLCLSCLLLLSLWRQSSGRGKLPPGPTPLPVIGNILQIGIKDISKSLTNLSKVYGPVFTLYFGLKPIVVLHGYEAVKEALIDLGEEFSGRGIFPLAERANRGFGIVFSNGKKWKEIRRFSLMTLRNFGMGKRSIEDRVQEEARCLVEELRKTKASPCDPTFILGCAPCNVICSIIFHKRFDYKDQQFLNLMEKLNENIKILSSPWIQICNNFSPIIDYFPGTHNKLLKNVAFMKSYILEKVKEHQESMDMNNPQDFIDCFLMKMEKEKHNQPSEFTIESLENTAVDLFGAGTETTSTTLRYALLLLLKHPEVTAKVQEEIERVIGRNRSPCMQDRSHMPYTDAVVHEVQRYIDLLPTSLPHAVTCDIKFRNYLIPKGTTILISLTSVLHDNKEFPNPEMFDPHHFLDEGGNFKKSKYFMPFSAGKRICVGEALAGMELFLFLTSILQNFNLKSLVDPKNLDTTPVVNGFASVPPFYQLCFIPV
Cytochrome P450 2D6, sequence (P10635 whole entry): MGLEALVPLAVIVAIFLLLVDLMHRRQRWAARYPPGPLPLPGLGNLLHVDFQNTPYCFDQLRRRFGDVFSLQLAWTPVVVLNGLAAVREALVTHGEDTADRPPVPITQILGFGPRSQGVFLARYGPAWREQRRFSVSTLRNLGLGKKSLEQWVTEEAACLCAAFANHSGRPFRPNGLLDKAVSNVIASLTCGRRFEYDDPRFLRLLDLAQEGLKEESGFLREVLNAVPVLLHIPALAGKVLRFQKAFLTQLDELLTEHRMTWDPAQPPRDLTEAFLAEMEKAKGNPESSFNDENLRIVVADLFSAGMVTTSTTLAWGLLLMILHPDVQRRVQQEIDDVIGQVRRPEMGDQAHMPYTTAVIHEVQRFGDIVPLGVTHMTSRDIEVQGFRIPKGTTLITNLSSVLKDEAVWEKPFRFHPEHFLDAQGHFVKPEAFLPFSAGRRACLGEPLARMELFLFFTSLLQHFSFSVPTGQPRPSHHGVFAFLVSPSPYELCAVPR
Cytochrome P450 3A4, sequence (P08684 whole entry): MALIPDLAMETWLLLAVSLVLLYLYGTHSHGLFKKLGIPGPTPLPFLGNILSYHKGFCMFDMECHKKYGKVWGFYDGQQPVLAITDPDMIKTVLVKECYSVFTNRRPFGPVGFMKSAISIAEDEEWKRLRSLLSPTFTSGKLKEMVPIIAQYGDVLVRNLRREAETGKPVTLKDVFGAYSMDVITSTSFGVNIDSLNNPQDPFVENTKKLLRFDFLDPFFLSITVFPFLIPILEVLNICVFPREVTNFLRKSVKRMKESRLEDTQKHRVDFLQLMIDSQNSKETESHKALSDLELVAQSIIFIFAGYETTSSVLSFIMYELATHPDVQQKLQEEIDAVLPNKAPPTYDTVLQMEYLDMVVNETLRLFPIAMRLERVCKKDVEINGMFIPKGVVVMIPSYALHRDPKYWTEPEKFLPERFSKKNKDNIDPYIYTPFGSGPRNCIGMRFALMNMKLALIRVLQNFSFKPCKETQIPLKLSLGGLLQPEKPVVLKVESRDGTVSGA

- EC150 [1]: 0.0031 µM
SMILES: O[C@@H]1CO[C@H]2[C@@H]1OC[C@H]2Oc1nc2nc(N[C@H]3CCc4ccccc43)c(Cl)cc2[nH]1

- EC150 [1]: 0.0047 µM
SMILES: CC(=O)Nc1cc(F)c2c(c1)CC[C@@H]2Nc1nc2nc(O[C@@H]3CO[C@H]4[C@@H]3OC[C@H]4O)[nH]c2cc1Cl
- EC150 [2]: 0.584 µM

- EC150 [1]: 0.002 µM
SMILES: O[C@@H]1CO[C@H]2[C@@H]1OC[C@H]2Oc1nc2nc(N[C@H]3CCc4cccc(F)c43)c(Cl)cc2[nH]1
- EC150 [2]: 1.06 µM

- EC150 [1]: 4.9 µM
SMILES: CN(Cc1ccccc1)c1nc2nc(O[C@@H]3CO[C@H]4[C@@H]3OC[C@H]4O)[nH]c2cc1Cl

- EC150 [1]: 0.0044 µM
SMILES: Cn1cc(-c2cc(F)c3c(c2)CC[C@@H]3Nc2nc3nc(O[C@@H]4CO[C@H]5[C@@H]4OC[C@H]5O)[nH]c3cc2Cl)cn1
- EC150 [2]: 0.0847 µM

- EC150 [1]: 23 µM
SMILES: CS(=O)(=O)c1ccccc1CNc1nc2nc(O[C@@H]3CO[C@H]4[C@@H]3OC[C@H]4O)[nH]c2cc1Cl

- EC150 [1]: 9.5 µM
SMILES: OCc1ccccc1CNc1nc2nc(O[C@@H]3CO[C@H]4[C@@H]3OC[C@H]4O)[nH]c2cc1Cl

- EC150 [1]: 8.9 µM
SMILES: O[C@@H]1CO[C@H]2[C@@H]1OC[C@H]2Oc1nc2nc(NCc3ccccc3C(F)(F)F)c(Cl)cc2[nH]1

- EC150 [1]: 0.048 µM
SMILES: O[C@@H]1CO[C@H]2[C@@H]1OC[C@H]2Oc1nc2nc(NCc3ccccc3F)c(Cl)cc2[nH]1

- EC150 [1]: 15 µM
SMILES: O[C@@H]1CO[C@H]2[C@@H]1OC[C@H]2Oc1nc2nc(NCCCc3ccccc3)c(Cl)cc2[nH]1

- IC50 [4]: > 20 µM
- remaining at 0.5 h [5]: 81%
- fraction unbound [6]: 0.031
- EC150 [1]: 0.0016 µM
- clearance [7]: 9.02 mL/min/kg
- Kp [9]: 1.51
- IC50 [10]: > 20 µM
- IC50 [11]: > 20 µM
- IC50 [12]: > 20 µM
- IC50 [13]: > 20 µM
- AUC [14]: 347 ng·h/mL
- Cmax [15]: 65.4 ng/mL
- remaining at 0.5 h [18]: 91%
- Kp [19]: 5.64
SMILES: COCCOc1cc(F)c2c(c1)CC[C@@H]2Nc1nc2nc(O[C@@H]3CO[C@H]4[C@@H]3OC[C@H]4O)[nH]c2cc1Cl
- Activity [3]: Active
- EC150 [2]: 0.0443 µM
- Activity [8]: Dose-Dependent Effect
- Activity [16]: Active
- Activity [17]: Dose-Dependent Effect

- EC150 [1]: 0.16 µM
SMILES: O[C@@H]1CO[C@H]2[C@@H]1OC[C@H]2Oc1nc2nc(NCc3ccccc3)c(Cl)cc2[nH]1
